Results on 35 compounds are retold here after patent US20260297108A1, “NOVEL INHIBITORS OF PIKFYVE AND METHODS USING SAME” (priority 2023, published 2026).

Structures are written as SMILES. Read-outs that look alike come from different tables or passages of the source. Some results are limits rather than exact numbers.

For data set [1], the target named is T1, PIKFYVE (Homo sapiens, UniProt Q9Y2I7). The data set can be described thus: KINOMEscan Kinase Assay (PIKFYVE inhibitory activity).
The test system of data set [2] is MDCK cells. The settings on record: dog.
Data set [3] deals with SARS-CoV2. The data set can be described thus: SARS-COV-2 IFA, inhibition of CPE (strain USA-WA1/2020). The settings on record: CC50 divided by EC50. It is filed as cell-based.
Data set [4] relates to SARS-CoV2 (Delta). Put plainly: SARS-COV-2 IFA, inhibition of CPE (Delta strain B.1.617). It is filed as cell-based, SARS-COV-2 Delta strain B.1.617. The settings on record: CC50 divided by EC50.
Data set [5] concerns Influenza A. The data set can be described thus: Influenza A, inhibition of CPE. It is filed as cell-based, influenza A strain California/07/09 (H1N1) pdm09. The settings on record: CC50 divided by EC50.
Data set [6] concerns Marburg. It is filed as cell-based, Marburg virus (Angola strain).
The nature of data set [7]: in vitro. The conditions noted are these: dog, mdck.
The nature of data set [8]: in vitro. The settings on record: monkey, vero cells.
Data set [9] has as its system IL-12 and IL-23 synthesis. The settings on record: background; cited from earlier work.
Data set [10] deals with enveloped viruses. The settings on record: background; cited from earlier work.
Data set [11] has as its target T1, PIKFYVE. Details: T7 phage display fusion, or alternatively DNA tag for qPCR (general KINOMEscan description); purchased Eurofins. The conditions noted are these: background; cited from earlier work.
The mark [12] stands for this setting: read-out: PIKfyve Activity (PIKfyve % inhibition).
Setting [13] is: read-out: PIKfyve Activity (% inhibition).

Broadly, the inhibition is the relative decrease from the control value, in per cent. The IC50 is the concentration needed to halve the response being measured.

T1 sequence (Q9Y2I7 whole entry): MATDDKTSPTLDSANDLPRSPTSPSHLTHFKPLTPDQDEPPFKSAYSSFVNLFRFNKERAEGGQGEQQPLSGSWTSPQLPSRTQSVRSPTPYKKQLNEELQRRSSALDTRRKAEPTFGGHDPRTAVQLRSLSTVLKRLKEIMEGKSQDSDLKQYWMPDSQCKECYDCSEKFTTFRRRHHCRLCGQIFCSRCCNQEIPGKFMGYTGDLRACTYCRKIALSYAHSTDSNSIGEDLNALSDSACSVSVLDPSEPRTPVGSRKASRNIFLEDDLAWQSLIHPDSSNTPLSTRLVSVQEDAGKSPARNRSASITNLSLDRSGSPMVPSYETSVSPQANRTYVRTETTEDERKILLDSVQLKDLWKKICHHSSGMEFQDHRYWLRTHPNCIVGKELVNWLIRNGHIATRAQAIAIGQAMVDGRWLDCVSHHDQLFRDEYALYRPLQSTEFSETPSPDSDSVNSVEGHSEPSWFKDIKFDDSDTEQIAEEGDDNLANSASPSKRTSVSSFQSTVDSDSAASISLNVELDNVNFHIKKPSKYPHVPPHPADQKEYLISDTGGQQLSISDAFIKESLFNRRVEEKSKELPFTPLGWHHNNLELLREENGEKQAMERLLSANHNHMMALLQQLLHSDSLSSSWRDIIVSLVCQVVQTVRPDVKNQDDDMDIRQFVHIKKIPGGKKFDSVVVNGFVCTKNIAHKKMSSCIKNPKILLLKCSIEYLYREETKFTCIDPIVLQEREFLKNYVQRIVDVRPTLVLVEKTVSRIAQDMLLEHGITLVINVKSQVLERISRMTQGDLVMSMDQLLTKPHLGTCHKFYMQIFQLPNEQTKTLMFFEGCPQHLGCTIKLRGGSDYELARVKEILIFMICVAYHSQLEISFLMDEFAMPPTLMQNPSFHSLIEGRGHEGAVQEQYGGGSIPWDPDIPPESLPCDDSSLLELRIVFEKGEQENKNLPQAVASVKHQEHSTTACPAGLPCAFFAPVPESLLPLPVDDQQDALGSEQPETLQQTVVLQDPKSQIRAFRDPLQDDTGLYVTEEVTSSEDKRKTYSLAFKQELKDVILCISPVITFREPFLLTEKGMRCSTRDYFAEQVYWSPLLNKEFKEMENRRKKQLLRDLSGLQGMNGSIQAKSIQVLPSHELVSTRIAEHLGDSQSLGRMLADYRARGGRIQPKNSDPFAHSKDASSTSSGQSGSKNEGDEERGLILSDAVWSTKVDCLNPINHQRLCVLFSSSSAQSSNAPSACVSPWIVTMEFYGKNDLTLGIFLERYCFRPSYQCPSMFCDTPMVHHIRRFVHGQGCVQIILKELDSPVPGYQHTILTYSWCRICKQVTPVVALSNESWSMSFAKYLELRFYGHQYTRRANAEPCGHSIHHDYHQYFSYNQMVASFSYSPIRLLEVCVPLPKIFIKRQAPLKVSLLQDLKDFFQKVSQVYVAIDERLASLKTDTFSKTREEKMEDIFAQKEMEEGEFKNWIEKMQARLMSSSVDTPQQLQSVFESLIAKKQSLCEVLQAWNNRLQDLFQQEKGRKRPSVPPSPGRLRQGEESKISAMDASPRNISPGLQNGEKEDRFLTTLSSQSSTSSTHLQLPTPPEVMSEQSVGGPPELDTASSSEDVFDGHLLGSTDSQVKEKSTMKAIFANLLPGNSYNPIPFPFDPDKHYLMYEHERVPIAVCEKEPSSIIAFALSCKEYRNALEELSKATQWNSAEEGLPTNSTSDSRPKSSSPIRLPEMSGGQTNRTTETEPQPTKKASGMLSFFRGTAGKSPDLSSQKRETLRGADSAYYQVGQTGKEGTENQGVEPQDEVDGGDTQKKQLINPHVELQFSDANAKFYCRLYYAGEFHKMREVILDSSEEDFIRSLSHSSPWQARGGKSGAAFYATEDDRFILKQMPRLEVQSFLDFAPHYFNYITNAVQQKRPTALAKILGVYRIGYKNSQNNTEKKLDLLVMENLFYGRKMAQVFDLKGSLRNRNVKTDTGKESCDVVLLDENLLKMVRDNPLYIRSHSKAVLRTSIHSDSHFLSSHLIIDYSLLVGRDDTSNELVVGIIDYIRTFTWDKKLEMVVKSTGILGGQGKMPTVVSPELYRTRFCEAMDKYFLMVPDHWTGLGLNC

Turning to `CC(=O)N1CCN(Cc2nc3c(N4CCOCC4)cc(-n4ccc(-c5cccc(C)c5)n4)nc3[nH]2)CC1` [Ex. 301], the inhibition at 0.001 µM in data set [1] (setting [12]) fell in the range of 52 to 100%.
For `Cc1cccc(-c2nc(-c3cc(N4CCOCC4)c4sc(CN5CCN(S(C)(=O)=O)CC5)cc4n3)co2)c1` [Ex. 242], the inhibition at 0.003 µM in data set [1] (setting [13]) was found to be 8%.
For `Cc1cccc(-c2ccn(-c3nc4[nH]c(C(=O)N5CCN(S(C)(=O)=O)CC5)nc4c(N4CCOCC4)c3F)n2)c1` [Ex. 292], the inhibition at 0.001 µM in data set [1] (setting [13]) turned out to be 13%.
Turning to `Cc1cccc(-c2ccn(-c3cc(N4CCOCC4)c4nc(CN5CC6CC5CN6S(C)(=O)=O)[nH]c4n3)n2)c1` (stereo not shown) [Ex. 281], the inhibition at 0.001 µM in data set [1] (setting [12]) lay in the range of 52 to 100%.
On the same count and under the same terms, then `Cc1cccc(-c2ccn(-c3cc(N4CCOCC4)c4sc(C(=O)NC5COC5)cc4n3)n2)c1` [Ex. 179, 7-Morpholino-N-(oxetan-3-yl)-5-(3-(m-tolyl)-1H-pyrazol-1-yl)thieno[3,2-b]pyridine-2-carboxamide], with 52 to 100%.
For the compound `Cc1cccc(-c2ccn(-c3cc(N4CCOCC4)c4nc(CN5CCN(S(=O)(=O)C(C)C)CC5)[nH]c4n3)n2)c1` [Ex. 279], in [1] (setting [12]), the inhibition at 0.001 µM lay in the range of 52 to 100%.
Regarding `Cc1cccc(-c2ccn(-c3cc(N4CCOCC4)c4nc(COCc5ccccc5)[nH]c4n3)n2)c1` [Ex. 316], the inhibition at 0.001 µM in [1] (setting [12]) was in the range of 52 to 100%.
Same read-out and setting: the result for `Cc1cccc(-c2ccn(-c3cc(N4CCOCC4)c4sc(C(=O)NC5CCN(C)CC5)cc4n3)n2)c1` [Ex. 186, N-(1-Methylpiperidin-4-yl)-7-morpholino-5-(3-(m-tolyl)-1H-pyrazol-1-yl)thieno[3,2-b]pyridine-2-carboxamide] reads 52 to 100%; that for `Cc1cccc(-c2ccn(-c3nc(N4CCOCC4)c4sc(NCCS(C)(=O)=O)nc4n3)n2)c1` [Ex. 209, N-(2-(Methylsulfonyl)ethyl)-7-morpholino-5-(3-(m-tolyl)-1H-pyrazol-1-yl)thiazolo[4,5-d]pyrimidin-2-amine], 52 to 100%; that for `Cc1cccc(-c2ccn(-c3cc(N4CCOCC4)c4sc(NC(=O)C5CCN(C)CC5)cc4n3)n2)c1` [Ex. 235], 52 to 100%.
Still for that read-out and setting: then `Cc1cccc(-c2ccn(-c3cc(N4CCOCC4)c4sc(C(=O)N5CC(F)C(N6CCC6)C5)cc4n3)n2)c1` (stereo not shown) [Ex. 239], with 52 to 100%.
`Cc1cccc(-c2ccn(-c3nc(N4CCOCC4)c4sc(C#CCN(C)C)cc4n3)n2)c1` [Ex. 207, N,N-Dimethyl-3-(4-morpholino-2-(3-(m-tolyl)-1H-pyrazol-1-yl)thieno[3,2-d]pyrimidin-6-yl)prop-2-yn-1-amine]: the inhibition at 0.001 µM in data set [1] (setting [13]) came out at 35%.
For the compound `Cc1cccc(-c2ccn(-c3nc(N4CCOCC4)c4sc(NCCN5CCOCC5)nc4n3)n2)c1` [Ex. 202, 7-Morpholino-N-(2-morpholinoethyl)-5-(3-(m-tolyl)-1H-pyrazol-1-yl)thiazolo-[4,5-d]pyrimidin-2-amine], the inhibition at 0.001 µM in data set [1] (setting [12]) was in the range of 52 to 100%.
`Cc1cccc(-c2ccn(-c3nc(N4CCOCC4)c4nc(CN5CCN(C(C)C)CC5)[nH]c4n3)n2)c1` [Ex. 40, 4-(8-((4-isopropylpiperazin-1-yl)methyl)-2-(3-(m-tolyl)-1H-pyrazol-1-yl)-9H-purin-6-yl)morpholine] came in with an IC50 in data set [1] of 0.001 to 0.01 µM.
Regarding `Cc1cccc(-c2ccn(-c3cc(N4CCOCC4)c4sc(C(=O)N5CCN(S(C)(=O)=O)CC5)cc4n3)n2)c1` [Ex. 240], the inhibition at 0.001 µM in data set [1] (setting [12]) lay in the range of 52 to 100%.
Regarding `Cc1cccc(-c2ccn(-c3cc(N4CCOCC4)c4nc(C(=O)NC5CC5)n(C)c4n3)n2)c1` [Ex. 309], the inhibition at 0.001 µM in data set [1] (setting [12]) was in the range of 52 to 100%.
`NC(=O)c1ncn([C@@H]2O[C@H](CO)[C@@H](O)[C@H]2O)n1` [ribavirin, reference compound]: in data set [2], the CC50 was > 1000 µM.
For `Cc1cccc(-c2nc(-c3cc(N4CCOCC4)c4sc(CN5CCN(S(C)(=O)=O)CC5)cc4n3)cs2)c1` [Ex. 244], in [1] (setting [13]), the inhibition at 0.001 µM worked out at 37%.
With `Cc1cccc(-c2ccn(-c3cc(N4CCOCC4)c4nc(C(=O)N5CCC(N6CCC6)C(F)C5)[nH]c4n3)n2)c1` (stereo not shown) [Ex. 89], in [1] (setting [12]), the inhibition at 0.001 µM was in the range of 52 to 100%.
Take `Cc1cccc(-c2ccn(-c3nc(N4CCOCC4)c4nc(CO)n(C)c4n3)n2)c1` [Ex. 315]: the inhibition at 0.001 µM in data set [1] (setting [13]) came to 47%.
In the case of `Cc1cccc(-c2ccn(-c3cc(N4CCOCC4)c4sc(CN5CCN(C(C)C)CC5)c(C)c4n3)n2)c1` [Ex. 132, 4-(2-((4-Isopropylpiperazin-1-yl)methyl)-3-methyl-5-(3-(m-tolyl)-1H-pyrazol-1-yl)thieno[3,2-b]pyridin-7-yl)morpholine], the inhibition at 0.001 µM in data set [1] (setting [12]) lay within 52 to 100%.
On the same count and under the same terms, then `Cc1cccc(-c2ccn(-c3nc(N4CCOCC4)c4sc(CO)cc4n3)n2)c1` [Ex. 311], with 52 to 100%; and `Cc1cccc(-c2ccn(-c3cc(N4CCOCC4)c4sc(C(=O)N5CCC(N6CC(F)C6)CC5)cc4n3)n2)c1` [Ex. 237], with 52 to 100%.
Same read-out and setting: then `Cc1cccc(-c2ccn(-c3cc(N4CCOCC4)c4sc(C(=O)NCCN(C)C)cc4n3)n2)c1` [Ex. 255], with 52 to 100%; and `Cc1cccc(-c2ccn(-c3cc(N4CCOCC4)c4sc(CN5CCC(C(N)=O)CC5)cc4n3)n2)c1` [Ex. 297], with 52 to 100%.
For the compound `Cc1cccc(-c2ccn(-c3cc(N4CCOCC4)c4sc(C(=O)NC5CC5)cc4n3)n2)c1` [Ex. 183, N-cyclopropyl-7-morpholino-5-(3-(m-tolyl)-1H-pyrazol-1-yl)thieno[3,2-b]pyridine-2-carboxamide], the inhibition at 0.001 µM in [1] (setting [12]) was 52 to 100%.
`Cc1cccc(-c2ccn(-c3nc(N4CCOCC4)c4nc(C(=O)N5CCN(S(C)(=O)=O)CC5)n(C)c4n3)n2)c1` [Ex. 287]: the inhibition at 0.001 µM in [1] (setting [12]) lay in the range of 52 to 100%.
Turning to `Brc1ccn(-c2cc(N3CCOCC3)c3sc(CN4CCOCC4)cc3n2)n1` [Ex. 173, 4-(5-(3-Bromo-1H-pyrazol-1-yl)-2-(morpholinomethyl)thieno[3,2-b]pyridin-7-yl)morpholine], the inhibition at 0.001 µM in data set [1] (setting [13]) came out at 18%.
With `Cc1cccc(-c2ccn(-c3nc(N4CCOCC4)c4sc(CN5CCN(S(C)(=O)=O)CC5)cc4n3)n2)c1` [Ex. 2, 4-(6-((4-(methylsulfonyl)piperazin-1-yl)methyl)-2-(3-(m-tolyl)-1H-pyrazol-1-yl)thieno[3,2-d]pyrimidin-4-yl)morpholine], the “Selectivity Index” value in [3] is on record as >150; in data set [4], >1000; in data set [5], >150; in data set [6], >15000. Further, the figures for the CC50 in data set [2] and in data set [7] were > 150 µM and > 3 µM, respectively. For the same compound, the CC50 at 24 h in data set [8] is > 3 µM.
For the compound `Cc1cccc(-c2ccn(-c3cc(N4CCOCC4)c4sc(C(=O)NC5(C)COC5)cc4n3)n2)c1` [Ex. 252], in data set [1] (setting [12]), the inhibition at 0.001 µM lay in the range of 52 to 100%.
With `Cc1cccc(-c2ccn(-c3cc(N4CCOCC4)c4sc(C(=O)Nc5ccccn5)cc4n3)n2)c1` [Ex. 299], in data set [1] (setting [12]), the inhibition at 0.001 µM was 52 to 100%.
The same measure, in the same setting: the result for `Cc1cccc(-c2ccn(-c3cc(N4CCOCC4)c4nc(CN5CCC(N6CCC6)C(F)C5)n(C)c4n3)n2)c1` (stereo not shown) [Ex. 83, 4-(2-((4-(azetidin-1-yl)-3-fluoropiperidin-1-yl)methyl)-3-methyl-5-(3-(m-tolyl)-1H-pyrazol-1-yl)-3H-imidazo[4,5-b]pyridin-7-yl)morpholine] reads 52 to 100%; that for `Cc1cccc(-c2ccn(-c3cc(N4CCOCC4)c4nc(CN5C6CC5CN(S(C)(=O)=O)C6)[nH]c4n3)n2)c1` [Ex. 285], 52 to 100%.
Same read-out and setting: then `Cc1cccc(-c2ccn(-c3nc(N4CCOCC4)c4nc(C(=O)NC5CC5)[nH]c4n3)n2)c1` [Ex. 274], with 52 to 100%.
As to `Cc1cccc(/C=N/Nc2cc(N3CCOCC3)nc(OCCc3ccccn3)n2)c1` [Apilimod], the “inhibitor of IL-12 and IL-23 synthesis” value in [9] is “inhibitor of IL-12 and IL-23 synthesis”. Further, in data set [10], the “prevention of infection by enveloped viruses” value is “prevent infection by some of these enveloped viruses”. Besides, the PIKFYVE inhibitory activity result in [11] is listed as “potent PIKFYVE inhibitory activity”.
